{"source": "PubChem BioAssay AID250", "about": "(DTP/NCI, 2004)", "test_system": "BDF1 mice, L1210 leukemia sc, survival T/C", "assay": "NCI In Vivo Anticancer Drug Screen. Data for tumor model L1210 Leukemia (subcutaneous) in B6D2F1 (BDF1) mice", "conditions": "endpoint: median survival time, higher = longer survival", "method_in_brief": "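Tumors were transplanted into mice, the animals were treated with compound, survival or tumor size was then measured, and treated values were divided by vehicle-control values.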", "note": "Values joined by “and” are separate entries in the source; they are usually repeats but may differ in a detail not shown here. Equal entries are not always repeated. Toxic doses and inconclusive results are not listed.", "data": [{"smiles": "N=c1ccn2c(n1)OC1C(O)C(CO)OC12", "note": "(stereo not given)", "values": [{"measurement": "T/C", "setting": "dose: 9.38 mg/kg/injection, schedule: Q03HX024 (sc), vehicle: water", "value": "190 % of control"}, {"measurement": "T/C", "setting": "dose: 18.75 mg/kg/injection, schedule: Q03HX024 (sc), vehicle: water", "value": "200 % of control"}, {"measurement": "T/C", "setting": "dose: 25.0 mg/kg/injection, schedule: Q01DX009 (sc), vehicle: water", "value": "203 % of control and 170 % of control"}, {"measurement": "T/C", "setting": "dose: 25.0 mg/kg/injection, schedule: Q## X009 (sc), vehicle: water", "value": "203 % of control and 172 % of control"}, {"measurement": "T/C", "setting": "dose: 37.5 mg/kg/injection, schedule: Q01DX008 (sc), vehicle: water", "value": "227 % of control and 228 % of control"}, {"measurement": "T/C", "setting": "dose: 37.5 mg/kg/injection, schedule: Q01DX009 (sc), vehicle: water", "value": "180 % of control"}, {"measurement": "T/C", "setting": "dose: 37.5 mg/kg/injection, schedule: Q03HX024 (sc), vehicle: water", "value": "205 % of control"}, {"measurement": "T/C", "setting": "dose: 50.0 mg/kg/injection, schedule: Q01DX009 (sc), vehicle: water", "value": "184 % of control [middle of 4 runs]"}, {"measurement": "T/C", "setting": "dose: 50.0 mg/kg/injection, schedule: Q## X009 (sc), vehicle: water", "value": "214 % of control and 188 % of control"}, {"measurement": "T/C", "setting": "dose: 65.0 mg/kg/injection, schedule: Q01DX009 (sc), vehicle: water", "value": "191 % of control"}, {"measurement": "T/C", "setting": "dose: 75.0 mg/kg/injection, schedule: Q01DX008 (sc), vehicle: water", "value": "228 % of control and 233 % of control"}, {"measurement": "T/C", "setting": "dose: 75.0 mg/kg/injection, schedule: Q01DX009 (oral), vehicle: water", "value": "180 % of control"}, {"measurement": "T/C", "setting": "dose: 75.0 mg/kg/injection, schedule: Q01DX009 (sc), vehicle: water", "value": "203 % of control and 190 % of control"}, {"measurement": "T/C", "setting": "dose: 75.0 mg/kg/injection, schedule: Q03HX024 (sc), vehicle: water", "value": "220 % of control"}, {"measurement": "T/C", "setting": "dose: 75.0 mg/kg/injection, schedule: Q## X009 (sc), vehicle: water", "value": "203 % of control"}, {"measurement": "T/C", "setting": "dose: 100.0 mg/kg/injection, schedule: Q01DX009 (ip), vehicle: saline", "value": "168 % of control and 172 % of control"}, {"measurement": "T/C", "setting": "dose: 100.0 mg/kg/injection, schedule: Q01DX009 (ip), vehicle: water", "value": "205 % of control"}, {"measurement": "T/C", "setting": "dose: 100.0 mg/kg/injection, schedule: Q01DX009 (sc), vehicle: water", "value": "206 % of control [middle of 4 runs]"}, {"measurement": "T/C", "setting": "dose: 100.0 mg/kg/injection, schedule: Q## X009 (sc), vehicle: water", "value": "222 % of control and 211 % of control"}, {"measurement": "T/C", "setting": "dose: 108.0 mg/kg/injection, schedule: Q01DX009 (sc), vehicle: water", "value": "183 % of control"}, {"measurement": "T/C", "setting": "dose: 108.0 mg/kg/injection, schedule: Q01DX014 (sc), vehicle: water", "value": "210 % of control"}, {"measurement": "T/C", "setting": "dose: 108.0 mg/kg/injection, schedule: Q01DX015 (sc), vehicle: water", "value": "194 % of control and 200 % of control"}, {"measurement": "T/C", "setting": "dose: 150.0 mg/kg/injection, schedule: Q01DX008 (sc), vehicle: water", "value": "247 % of control and 250 % of control"}, {"measurement": "T/C", "setting": "dose: 150.0 mg/kg/injection, schedule: Q01DX009 (oral), vehicle: water", "value": "175 % of control"}, {"measurement": "T/C", "setting": "dose: 150.0 mg/kg/injection, schedule: Q01DX009 (sc), vehicle: water", "value": "233 % of control and 200 % of control"}, {"measurement": "T/C", "setting": "dose: 150.0 mg/kg/injection, schedule: Q03HX008 (sc), vehicle: water", "value": "150 % of control"}, {"measurement": "T/C", "setting": "dose: 150.0 mg/kg/injection, schedule: Q03HX024 (sc), vehicle: water", "value": "210 % of control"}, {"measurement": "T/C", "setting": "dose: 150.0 mg/kg/injection, schedule: Q## X009 (sc), vehicle: water", "value": "233 % of control"}, {"measurement": "T/C", "setting": "dose: 180.0 mg/kg/injection, schedule: Q01DX009 (sc), vehicle: water", "value": "207 % of control"}, {"measurement": "T/C", "setting": "dose: 180.0 mg/kg/injection, schedule: Q01DX014 (sc), vehicle: water", "value": "253 % of control"}, {"measurement": "T/C", "setting": "dose: 180.0 mg/kg/injection, schedule: Q01DX015 (sc), vehicle: water", "value": "222 % of control and 223 % of control"}, {"measurement": "T/C", "setting": "dose: 200.0 mg/kg/injection, schedule: Q01DX009 (ip), vehicle: saline", "value": "180 % of control and 190 % of control"}, {"measurement": "T/C", "setting": "dose: 200.0 mg/kg/injection, schedule: Q01DX009 (ip), vehicle: water", "value": "227 % of control"}, {"measurement": "T/C", "setting": "dose: 200.0 mg/kg/injection, schedule: Q01DX009 (sc), vehicle: water", "value": "236 % of control [middle of 4 runs]"}, {"measurement": "T/C", "setting": "dose: 200.0 mg/kg/injection, schedule: Q## X009 (sc), vehicle: water", "value": "247 % of control and 238 % of control"}, {"measurement": "T/C", "setting": "dose: 300.0 mg/kg/injection, schedule: Q01DX001 (sc), vehicle: water", "value": "120 % of control"}, {"measurement": "T/C", "setting": "dose: 300.0 mg/kg/injection, schedule: Q01DX008 (sc), vehicle: water", "value": "235 % of control and 238 % of control"}, {"measurement": "T/C", "setting": "dose: 300.0 mg/kg/injection, schedule: Q01DX009 (ip), vehicle: saline", "value": "202 % of control and 209 % of control"}, {"measurement": "T/C", "setting": "dose: 300.0 mg/kg/injection, schedule: Q01DX009 (oral), vehicle: water", "value": "195 % of control"}, {"measurement": "T/C", "setting": "dose: 300.0 mg/kg/injection, schedule: Q01DX009 (sc), vehicle: water", "value": "180 % of control and 183 % of control (2×)"}, {"measurement": "T/C", "setting": "dose: 300.0 mg/kg/injection, schedule: Q01DX014 (sc), vehicle: water", "value": "239 % of control"}, {"measurement": "T/C", "setting": "dose: 300.0 mg/kg/injection, schedule: Q01DX015 (sc), vehicle: water", "value": "227 % of control and 231 % of control"}, {"measurement": "T/C", "setting": "dose: 300.0 mg/kg/injection, schedule: Q03HX008 (sc), vehicle: water", "value": "155 % of control"}, {"measurement": "T/C", "setting": "dose: 300.0 mg/kg/injection, schedule: Q04DX003 (sc), vehicle: water", "value": "150 % of control"}, {"measurement": "T/C", "setting": "dose: 300.0 mg/kg/injection, schedule: Q## X009 (sc), vehicle: water", "value": "218 % of control"}, {"measurement": "T/C", "setting": "dose: 400.0 mg/kg/injection, schedule: Q01DX009 (ip), vehicle: water", "value": "177 % of control"}, {"measurement": "T/C", "setting": "dose: 400.0 mg/kg/injection, schedule: Q01DX009 (sc), vehicle: water", "value": "200 % of control and 209 % of control and 304 % of control"}, {"measurement": "T/C", "setting": "dose: 500.0 mg/kg/injection, schedule: Q01DX014 (sc), vehicle: water", "value": "163 % of control"}, {"measurement": "T/C", "setting": "dose: 500.0 mg/kg/injection, schedule: Q01DX015 (sc), vehicle: water", "value": "211 % of control and 233 % of control"}, {"measurement": "T/C", "setting": "dose: 600.0 mg/kg/injection, schedule: Q01DX008 (sc), vehicle: water", "value": "172 % of control and 180 % of control"}, {"measurement": "T/C", "setting": "dose: 600.0 mg/kg/injection, schedule: Q01DX009 (oral), vehicle: water", "value": "155 % of control"}, {"measurement": "T/C", "setting": "dose: 600.0 mg/kg/injection, schedule: Q04DX003 (sc), vehicle: water", "value": "170 % of control"}, {"measurement": "T/C", "setting": "dose: 800.0 mg/kg/injection, schedule: Q01DX009 (ip), vehicle: water", "value": "122 % of control"}, {"measurement": "T/C", "setting": "dose: 800.0 mg/kg/injection, schedule: Q01DX009 (sc), vehicle: water", "value": "88 % of control"}, {"measurement": "T/C", "setting": "dose: 800.0 mg/kg/injection, schedule: Q## X009 (sc), vehicle: water", "value": "88 % of control"}, {"measurement": "T/C", "setting": "dose: 1200.0 mg/kg/injection, schedule: Q01DX009 (oral), vehicle: water", "value": "100 % of control"}, {"measurement": "T/C", "setting": "dose: 1200.0 mg/kg/injection, schedule: Q04DX003 (sc), vehicle: water", "value": "195 % of control"}, {"measurement": "T/C", "setting": "dose: 1600.0 mg/kg/injection, schedule: Q01DX001 (sc), vehicle: water", "value": "150 % of control and 157 % of control"}, {"measurement": "T/C", "setting": "dose: 2400.0 mg/kg/injection, schedule: Q01DX001 (sc), vehicle: water", "value": "150 % of control"}, {"measurement": "T/C", "setting": "dose: 2400.0 mg/kg/injection, schedule: Q03HX008 (sc), vehicle: water", "value": "90 % of control"}]}]}
